BindingDB's records for PubMed 8100350 (University of Pennsylvania, 1993)
Where a SMILES comes first, the peptide text is derived from it. Bridges are numbered along the chain shown (N, C = ends). [ ]: non-standard residue; d: D form. The star is where a group is joined. ξ: configuration not given here. NH(1-naphthylmethyl) = c1ccc2c(CN*)cccc2c1; Phe(4-Cl) = N[C@@H](Cc1ccc(Cl)cc1)C(=O)O; dPhe(4-Cl) = N[C@H](Cc1ccc(Cl)cc1)C(=O)O; 2Nal = N[C@@H](Cc1ccc2ccccc2c1)C(=O)O; d1Nal = N[C@H](Cc1cccc2ccccc12)C(=O)O; d2Nal = N[C@H](Cc1ccc2ccccc2c1)C(=O)O; dNMeF = CN[C@H](Cc1ccccc1)C(=O)O; NMeA = CN[C@@H](C)C(=O)O; dNMeA = CN[C@H](C)C(=O)O; Abu = CC[C@H](N)C(=O)O; Ahp = NCCCCCCC(=O)O; Ahx = NCCCCCC(=O)O; Bn = c1ccc(C*)cc1; ξC = NC(CS)C(=O)O

Tests used:
[1] = target: Somatostatin receptor type 1 (Homo sapiens, UniProt P30872)
[2] = target: Somatostatin receptor type 3 (Mus musculus, UniProt P30935)
[3] = target: Somatostatin receptor type 2 (Mus musculus, UniProt P30875)
Somatostatin receptor type 2, sequence (P30875 whole entry): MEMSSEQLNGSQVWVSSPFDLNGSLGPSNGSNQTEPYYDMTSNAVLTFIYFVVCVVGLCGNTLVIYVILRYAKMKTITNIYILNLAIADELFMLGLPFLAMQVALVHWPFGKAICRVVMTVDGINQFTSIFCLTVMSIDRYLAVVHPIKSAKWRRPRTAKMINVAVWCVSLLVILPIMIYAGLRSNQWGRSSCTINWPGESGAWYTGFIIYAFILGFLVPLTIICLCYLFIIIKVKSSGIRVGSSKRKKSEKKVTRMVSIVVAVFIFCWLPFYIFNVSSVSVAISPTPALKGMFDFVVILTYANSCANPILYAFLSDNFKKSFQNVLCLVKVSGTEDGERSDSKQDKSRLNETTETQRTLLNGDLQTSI

Somatostatin receptor type 3, sequence (P30935 whole entry): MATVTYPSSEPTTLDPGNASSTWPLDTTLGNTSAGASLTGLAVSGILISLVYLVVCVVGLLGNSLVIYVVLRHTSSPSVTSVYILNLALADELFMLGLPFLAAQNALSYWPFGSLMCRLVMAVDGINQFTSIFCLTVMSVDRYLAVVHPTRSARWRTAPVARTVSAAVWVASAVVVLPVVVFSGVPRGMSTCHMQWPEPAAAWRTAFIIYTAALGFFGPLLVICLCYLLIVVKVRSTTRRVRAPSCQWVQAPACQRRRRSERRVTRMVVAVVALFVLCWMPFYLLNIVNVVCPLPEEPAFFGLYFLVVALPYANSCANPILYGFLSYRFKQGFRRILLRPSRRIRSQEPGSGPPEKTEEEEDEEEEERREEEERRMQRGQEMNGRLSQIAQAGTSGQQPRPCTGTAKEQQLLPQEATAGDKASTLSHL
Somatostatin receptor type 1, sequence (P30872 whole entry): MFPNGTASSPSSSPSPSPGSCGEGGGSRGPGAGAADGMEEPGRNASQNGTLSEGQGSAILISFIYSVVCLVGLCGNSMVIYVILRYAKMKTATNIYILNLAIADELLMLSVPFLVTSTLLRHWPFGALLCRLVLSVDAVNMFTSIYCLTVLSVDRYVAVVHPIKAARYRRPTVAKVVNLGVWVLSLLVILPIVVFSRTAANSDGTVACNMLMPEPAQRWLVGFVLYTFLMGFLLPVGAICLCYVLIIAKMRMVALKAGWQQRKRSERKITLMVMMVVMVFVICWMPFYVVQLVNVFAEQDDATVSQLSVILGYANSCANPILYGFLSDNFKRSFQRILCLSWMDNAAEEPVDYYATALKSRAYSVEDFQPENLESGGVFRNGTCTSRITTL

Compound	Ki [1] [nM]	Ki [2] [nM]	Ki [3] [nM]
CC(C)[C@H](NC(=O)[C@H](CCCCN)NC(=O)[C@@H](Cc1c[nH]c2ccccc12)NC(=O)[C@H](Cc1ccc(O)cc1)NC(=O)[C@H](C)NC(=O)[C@H](N)Cc1ccc2ccccc2c1)C(=O)N[C@@H](C)C(=O)N[C@H](C(N)=O)[C@@H](C)O [D-Nal-Ala-Tyr-D-Trp-Lys-Val-Ala-Thr-NH2] (H-[d2Nal]AY[dW]KVAT-NH2)	1000	10	86
CC(C)[C@@H]1NC(=O)[C@H](CCCCN)NC(=O)[C@@H](Cc2c[nH]c3ccccc23)NC(=O)[C@H](Cc2ccc(O)cc2)NC(=O)[C@@H](NC(=O)[C@H](N)Cc2ccc3ccccc3c2)CSSC[C@@H](C(=O)N[C@H](C(N)=O)[C@@H](C)O)NC1=O [3-(2-Naphtyl)-D-Ala-L-Cys(1)-L-Tyr-D-Trp-L-Lys-L-Val-L-Cys(1)-L-Thr-NH2]	789	5.6	1.6
C[C@@H](O)[C@H](NC(=O)[C@H](Cc1ccccc1)NC(=O)[C@@H](NC(=O)[C@H](CCCCN)NC(=O)[C@@H](Cc1c[nH]c2ccccc12)NC(=O)[C@H](Cc1ccccc1)NC(=O)[C@H](Cc1ccccc1)NC(=O)[C@H](N)Cc1ccccc1)[C@@H](C)O)C(N)=O [CAS_133073-82-2] (H-[dF]FF[dW]KTFT-NH2)	23	0.42	32
CC(C)[C@H](NC(=O)[C@H](CCCCN)NC(=O)[C@@H](Cc1c[nH]c2ccccc12)NC(=O)[C@H](Cc1ccc(O)cc1)NC(=O)[C@H](C)NC(=O)[C@H](N)Cc1ccc(Cl)cc1)C(=O)N[C@@H](C)C(=O)N[C@@H](Cc1ccc2ccccc2c1)C(N)=O [CAS_150155-67-2] (H-[dPhe(4-Cl)]AY[dW]KVA[2Nal]-NH2)	1000	143	22
C[C@@H](O)[C@H](NC(=O)[C@H](Cc1ccccc1)NC(=O)[C@@H](NC(=O)[C@H](CCCCN)NC(=O)[C@@H](Cc1c[nH]c2ccccc12)NC(=O)[C@H](Cc1ccc(O)cc1)NC(=O)[C@H](Cc1ccc(Cl)cc1)NC(=O)[C@H](N)Cc1ccc2ccccc2c1)[C@@H](C)O)C(N)=O [CAS_150155-63-8] (H-[d2Nal][Phe(4-Cl)]Y[dW]KTFT-NH2)	1000	11	40
CC(C)[C@H](NC(=O)[C@H](CCCCN)NC(=O)[C@@H](Cc1c[nH]c2ccccc12)NC(=O)[C@H](Cc1ccc(O)cc1)NC(=O)[C@H](Cc1ccccc1)NC(=O)[C@H](N)Cc1ccccc1)C(=O)N[C@@H](Cc1ccccc1)C(=O)N[C@H](Cc1ccccc1)C(N)=O [D-Phe-Phe-Tyr-D-Trp-Lys-Val-Phe-D-Phe-NH2] (H-[dF]FY[dW]KVF[dF]-NH2)	1000	38	> 10000
C[C@@H](O)[C@@H]1NC(=O)[C@H](CCCCN)NC(=O)[C@@H](Cc2c[nH]c3ccccc23)NC(=O)[C@H](Cc2ccccc2)NC(=O)[C@@H]2CCCN2C(=O)[C@H](Cc2ccccc2)NC1=O (cyclo(PF[dW]KTF))	1000	108	8.6
CC(C)[C@H](NC(=O)[C@H](CCCCN)NC(=O)[C@@H](Cc1c[nH]c2ccccc12)NC(=O)[C@H](Cc1ccc(O)cc1)NC(=O)[C@H](Cc1ccccc1)NC(=O)[C@H](N)Cc1ccccc1)C(=O)N[C@@H](Cc1ccccc1)C(=O)N[C@H](Cc1cccc2ccccc12)C(N)=O [BIM 23056] (H-[dF]FY[dW]KVF[d1Nal]-NH2)	1000	0.02	> 10000
CC(C)[C@H](NC(=O)[C@H](CCCCN)NC(=O)[C@@H](Cc1c[nH]c2ccccc12)NC(=O)[C@H](Cc1ccc(O)cc1)NC(=O)[C@H](Cc1ccccc1)NC(=O)[C@H](N)Cc1ccccc1)C(=O)N[C@@H](Cc1ccccc1)C(=O)N[C@H](C(N)=O)[C@@H](C)O [BIM-23058] (H-[dF]FY[dW]KVFT-NH2)	1000	0.04	46
CC(C)[C@H](NC(=O)[C@H](CCCCN)NC(=O)[C@@H](Cc1c[nH]c2ccccc12)NC(=O)[C@H](Cc1ccc(O)cc1)NC(=O)[C@H](Cc1ccc(Cl)cc1)NC(=O)[C@H](N)Cc1ccccc1)C(=O)N[C@@H](Cc1ccccc1)C(=O)N[C@H](C(N)=O)[C@@H](C)O [BIM 23057] (H-[dF][Phe(4-Cl)]Y[dW]KVFT-NH2)	1000	4.8	2.4

The next lines start with the values.

Ki [1] [nM]	Ki [2] [nM]	Ki [3] [nM]	Compound
1000	112	0.002	NCCCCC1NC(=O)C(Cc2c[nH]c3ccccc23)NC(=O)C(Cc2ccc(O)cc2)NC(=O)C(NC(=O)C(N)Cc2ccccc2)CSSCC(C(=O)NCc2cccc3ccccc23)NC(=O)C(CO)NC1=O (configuration not stated) [NC4-28B] (H-FCYWKSC-{NH(1-naphthylmethyl)}; disulfide 2-7; configuration not given here)
141	107	1000	C[C@@H](OCc1ccccc1)[C@@H]1NC(=O)[C@H](CCCCN)NC(=O)[C@@H](Cc2c[nH]c3ccccc23)NC(=O)[C@H](Cc2ccccc2)NC(=O)CCCCCCNC1=O [c[Aha-Phe-D-Trp-Lys-Thr(Bzl)]] (cyclo([Ahp]F[dW]KT(Bn)))
1000	0.08	83	C[C@@H](O)[C@@H]1NC(=O)[C@H](CCCCN)NC(=O)[C@@H](Cc2c[nH]c3ccccc23)NC(=O)[C@H](Cc2ccccc2)NC(=O)[C@@H]2CSSCC(NC1=O)C(=O)NCCCCCCC(=O)N2 [(1R,4S,7S,10R,13S,16R)-4-[(R)-1-Hydroxyethyl]-7-(4-aminobutyl)-10-(1H-indole-3-ylmethyl)-13-benzyl-28,29-dithia-2,5,8,11,14,17,25-heptaazabicyclo[14.10.4]triacontane-3,6,9,12,15,18,26-heptone] (cyclo([Ahp]CF[dW]KT[ξC]); disulfide 2-7)
1000	1000	1000	C[C@@H](O)[C@@H]1NC(=O)[C@H](CCCCN)NC(=O)[C@@H](Cc2c[nH]c3ccccc23)NC(=O)[C@H](Cc2ccccc2)NC(=O)CCCCCCNC1=O [c[Aha-Phe-D-Trp-Lys-Thr]] (cyclo([Ahp]F[dW]KT))
419	4.7	> 10000	CC(C)[C@@H]1NC(=O)[C@H](CCCCN)NC(=O)[C@@H](Cc2c[nH]c3ccccc23)NC(=O)[C@H](Cc2ccc(O)cc2)NC(=O)[C@@H](C)N(C)C(=O)[C@H](Cc2ccccc2)NC1=O
183	73	1000	C[C@@H](OCc1ccccc1)[C@@H]1NC(=O)[C@H](CCCCN)NC(=O)[C@@H](Cc2c[nH]c3ccccc23)NC(=O)[C@H](Cc2ccccc2)NC(=O)CCCCCNC1=O [c[Ahx-Phe-D-Trp-Lys-Thr(Bzl)]] (cyclo([Ahx]F[dW]KT(Bn)))
1000	18.9	26	C[C@H](O)[C@H]1NC(=O)[C@H](CCCCN)NC(=O)[C@@H](Cc2c[nH]c3ccccc23)NC(=O)[C@@H](Cc2ccccc2)NC(=O)[C@@H](C)N(C)C(=O)[C@@H](Cc2ccccc2)N(C)C1=O [N-Methylcyclo(D-Ala-D-Phe-D-Trp-L-Lys-D-Thr-N-methyl-D-Phe-)] (cyclo(K[dT][dNMeF][dNMeA][dF][dW]))
382	20	4.8	CC(O)C1NC(=O)C(CCCCN)NC(=O)C(Cc2c[nH]c3ccccc23)NC(=O)C(Cc2ccccc2)NC(=O)C(NC(=O)C(N)Cc2ccccc2)CSSCC(C(=O)NCc2cccc3ccccc23)NC1=O (configuration not stated) [EC5-21] (H-FCFWKTC-{NH(1-naphthylmethyl)}; disulfide 2-7; configuration not given here)
1000	2.4	0.001	CC[C@@H]1NC(=O)[C@H](CCCCN)NC(=O)[C@@H](Cc2c[nH]c3ccccc23)NC(=O)[C@H](Cc2ccc(O)cc2)NC(=O)[C@H](C)N(C)C(=O)[C@H](Cc2ccccc2)NC1=O [BIM-23027] (cyclo([Abu]F[NMeA]Y[dW]K))
